The values below come from patent US7244727B2, “Fused bicyclic nitrogen-containing heterocycles” (Japan Tobacco Inc., priority 2002, dated 2007).

What is called IC50 is the concentration that inhibits the measured activity by half. Broadly, the melting point is the temperature of the solid-liquid transition.

In data set [1] the target is T1, human DGAT1 (Homo sapiens, UniProt O75907).
T1 construct: made in house; host or cells: insect cells (sf9, sf21 or High Five) infected with baculovirus; total cell membranes
T1 sequence (O75907 1-488): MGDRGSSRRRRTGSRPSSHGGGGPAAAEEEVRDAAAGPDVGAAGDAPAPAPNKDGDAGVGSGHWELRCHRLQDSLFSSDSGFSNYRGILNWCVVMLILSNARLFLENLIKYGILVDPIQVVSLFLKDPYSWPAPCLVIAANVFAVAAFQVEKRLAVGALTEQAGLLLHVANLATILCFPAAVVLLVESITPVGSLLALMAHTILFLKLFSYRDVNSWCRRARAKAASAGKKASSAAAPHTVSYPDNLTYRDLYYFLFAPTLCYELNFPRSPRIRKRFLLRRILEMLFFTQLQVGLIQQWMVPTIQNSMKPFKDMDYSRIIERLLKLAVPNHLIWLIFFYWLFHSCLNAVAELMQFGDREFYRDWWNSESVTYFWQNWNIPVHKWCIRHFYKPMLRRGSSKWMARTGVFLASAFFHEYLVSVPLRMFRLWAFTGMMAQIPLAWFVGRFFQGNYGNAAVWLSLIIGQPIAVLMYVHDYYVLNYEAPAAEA
Kind of data set: DGAT Scintillation Proximity Assay (SPA) with membranes of insect cells expressing human flagtag DGAT1. As to conditions: read-out: hDGAT1 IC50. Format: biochemical. An outline of the steps: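 Membranes (0.2 μg/well) from insect cells expressing human flag-tagged DGAT1 incubated with 10 μM compound and 200 μM dioleoyl glycerol substrate; mercuric chloride as inhibition control. Reaction stopped with WGA SPA beads in mercuric chloride, overnight bead coupling, then scintillation proximity signal read.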
On the technique in general: SPA uses beads or plates that emit light when radiolabelled molecules are held near them.

Molecules are shown by their SMILES. Some results are limits rather than exact numbers.

On to `CC1(C)Oc2ncnc(N)c2N=C1c1ccc([C@H]2CC[C@H](CC(=O)N3CCC(CCO)CC3)CC2)cc1` [Example 2-96], for which the melting point is 112 to 113 °C. The concentration for half-maximal inhibition (IC50) in data set [1] is 10 to 100 nM.

`CC1(C)Oc2ncnc(N)c2N=C1c1ccc([C@H]2CC[C@H](CC(=O)N3CCN(CCO)CC3)CC2)cc1` [Example 2-97] had a melting point of 225 to 226 °C. Also, in data set [1], the IC50 was 10 to 100 nM.

In the case of `CC(C)(CO)NC(=O)C[C@H]1CC[C@H](c2ccc(C3=Nc4c(N)ncnc4OC3(C)C)cc2)CC1` [Example 2-98], the melting point fell in the range of 131 to 133 °C. In data set [1], the half-inhibitory concentration (IC50) is 10 to 100 nM.

`CN(CCO)C(=O)C[C@H]1CC[C@H](c2ccc(C3=Nc4c(N)ncnc4OC3(C)C)cc2)CC1` [Example 2-99]: the melting point lay in the range of 113 to 115 °C. Moreover, in data set [1], the IC50 was in the range of 10 to 100 nM.

The compound `CC1(C)Oc2ncnc(N)c2N=C1c1ccc([C@H]2CC[C@H](CC(=O)N3CCC[C@H]3CO)CC2)cc1` [Example 2-100] gave a melting point of 184 to 185 °C. For the same compound, the half-inhibitory concentration (IC50) in data set [1] lay in the range of 10 to 100 nM.

`CC1(C)Oc2ncnc(N)c2N=C1c1ccc([C@H]2CC[C@H](CC(=O)N3CCC(O)C3)CC2)cc1` (some centres unmarked) [Example 2-101] gave a melting point of 237 to 239 °C. Moreover, the half-inhibitory concentration (IC50) in data set [1] was 10 to 100 nM.

With `CCCNC(=O)C[C@H]1CC[C@H](c2ccc(C3=Nc4c(N)ncnc4OC3(C)C)cc2)CC1` [Example 2-102], the melting point was 214 to 215 °C. The IC50 in data set [1] fell in the range of 10 to 100 nM.

Compound `CC1(C)Oc2ncnc(N)c2N=C1c1ccc([C@H]2CC[C@H](CC(=O)N3CC[C@@H](O)C3)CC2)cc1` [Example 2-103] returned a melting point of 231 to 232 °C. The IC50 in data set [1] fell in the range of 10 to 100 nM.

Compound `CN(CC[C@H]1CC[C@H](c2ccc(C3=Nc4c(N)ncnc4OC3(C)C)cc2)CC1)C(=O)CO` [Example 2-104] registered a melting point of 186 to 188 °C. Besides, the half-inhibitory concentration (IC50) in data set [1] was 10 to 100 nM.

Compound `CN(C(=O)CO)[C@H]1CC[C@H](c2ccc(C3=Nc4c(N)ncnc4OC3(C)C)cc2)CC1` [Example 2-105] displayed a melting point greater than 250 °C. Also, the 50% inhibitory concentration (IC50) in data set [1] was 10 to 100 nM.

In turn, `CC1(C)Oc2ncnc(N)c2N=C1c1ccc([C@H]2CC[C@H](CC(=O)N3C[C@@H](O)[C@@H](O)C3)CC2)cc1` [Example 2-106] displayed a melting point of 250 to 252 °C. The IC50 in data set [1] was 10 to 100 nM.

The compound `CC1(C)Oc2ncnc(N)c2N=C1c1ccc([C@H]2CC[C@H](Cn3ccnc3)CC2)cc1` [Example 2-108] registered a melting point of 202 to 203 °C. Besides, the IC50 in data set [1] lay in the range of 10 to 100 nM.

In turn, `CC1(C)Oc2ncnc(N)c2N=C1c1ccc([C@H]2CC[C@H](Cc3nc4ccccc4[nH]3)CC2)cc1` [Example 2-109] gave a melting point greater than 230 °C. Further, the IC50 in data set [1] was in the range of 10 to 100 nM.

Turning to `CC1(C)Oc2ncnc(N)c2N=C1c1ccc([C@H]2CC[C@H](CC(=O)CO)CC2)cc1` [Example 2-110], the melting point was in the range of 155 to 156 °C. Moreover, the concentration for half-maximal inhibition (IC50) in data set [1] fell in the range of 10 to 100 nM.

`CC1(C)Oc2ncnc(N)c2N=C1c1ccc([C@H]2CC[C@H](CC(=O)N3CCNCC3)CC2)cc1.Cl.Cl` [Example 2-111] displayed a melting point greater than 250 °C. Besides, the IC50 in data set [1] fell in the range of 10 to 100 nM.

`CC1(C)Oc2ncnc(N)c2N=C1c1ccc([C@H]2CC[C@H](SCC(=O)O)CC2)cc1` [Example 2-112] returned a melting point greater than 250 °C. Also, the IC50 in data set [1] lay in the range of 10 to 100 nM.

`Cc1ncc(C[C@H]2CC[C@H](c3ccc(C4=Nc5c(N)ncnc5OC4(C)C)cc3)CC2)[nH]1` [Example 2-113] gave a melting point of 172 to 173 °C. Besides, in data set [1], the IC50 is 10 to 100 nM.

In turn, `CC(C)NC[C@H]1CC[C@H](c2ccc(C3=Nc4c(N)ncnc4OC3(C)C)cc2)CC1` [Example 2-114] yielded a melting point of 250 °C. For the same compound, the IC50 in data set [1] lay within 10 to 100 nM.

Compound `CCOC(=O)N1CCC(NC[C@H]2CC[C@H](c3ccc(C4=Nc5c(N)ncnc5OC4(C)C)cc3)CC2)CC1` [Example 2-115] returned a melting point of 127 to 135 °C. Moreover, in data set [1], the 50% inhibitory concentration (IC50) was greater than 100 nM.

`CC1(C)Oc2ncnc(N)c2N=C1c1ccc([C@H]2CC[C@H](CN[C@H]3CC[C@H](O)CC3)CC2)cc1` [Example 2-116]: the melting point was greater than 250 °C. For the same compound, the half-inhibitory concentration (IC50) in data set [1] fell in the range of 10 to 100 nM.

In the case of `CC1(C)Oc2nccc(N)c2N=C1c1ccc([C@H]2CC[C@H](CC(=O)O)CC2)cc1` [Example 2-117], the melting point is greater than 250 °C. Besides, the concentration for half-maximal inhibition (IC50) in data set [1] was 10 to 100 nM.

As to `Cc1ncc(C[C@H]2CC[C@H](c3ccc(C4=Nc5c(N)ncnc5OC4(C)C)cc3)CC2)s1` [Example 2-118], the melting point lay in the range of 215 to 216 °C. In addition, the IC50 in data set [1] was 10 to 100 nM.

Turning to `CC1(C)Oc2ncnc(N)c2N=C1c1ccc([C@H]2CC[C@H](Cc3cnc(C(C)(C)C)[nH]3)CC2)cc1` [Example 2-119], the melting point is greater than 250 °C. Also, the 50% inhibitory concentration (IC50) in data set [1] fell in the range of 10 to 100 nM.

Turning to `CC1(C)Oc2ncnc(N)c2N=C1c1ccc([C@H]2CC[C@H](Cc3cnc(C4CC4)[nH]3)CC2)cc1` [Example 2-120], the melting point lay in the range of 226 to 227 °C. Further, in data set [1], the IC50 lay within 10 to 100 nM.

`CC1(C)Oc2ncnc(N)c2N=C1c1ccc([C@H]2CC[C@H](Cc3nc4cc(Cl)ccc4[nH]3)CC2)cc1` [Example 2-122]: the melting point was greater than 230 °C. Moreover, the IC50 in data set [1] was 10 to 100 nM.

`CC1(C)Oc2ncnc(N)c2N=C1c1ccc([C@H]2CC[C@H](Cc3cnc(-c4ccccc4)[nH]3)CC2)cc1` [Example 2-123]: the melting point fell in the range of 230 to 231 °C. In addition, in data set [1], the IC50 is 10 to 100 nM.

Compound `CC1(C)Oc2ncnc(N)c2N=C1c1ccc([C@H]2CC[C@H](Cc3nc4cc(F)ccc4[nH]3)CC2)cc1` [Example 2-124] returned a melting point greater than 230 °C. Further, the half-inhibitory concentration (IC50) in data set [1] lay in the range of 10 to 100 nM.

`CC1(C)Oc2ncnc(N)c2N=C1c1ccc([C@@H]2CCC[C@H](CC(=O)O)C2)cc1` [Example 2-126] registered a melting point of 234 to 235 °C. The IC50 in data set [1] is 10 to 100 nM.

Regarding `Cc1csc(NC[C@H]2CC[C@H](c3ccc(C4=Nc5c(N)ncnc5OC4(C)C)cc3)CC2)n1` [Example 2-127], the melting point is 228 to 230 °C. Also, the IC50 in data set [1] fell in the range of 10 to 100 nM.

Take `CC(=O)NC[C@H]1CC[C@H](c2ccc(C3=Nc4c(N)ncnc4OC3(C)C)cc2)CC1` [Example 2-128]: the melting point fell in the range of 253 to 254 °C. In data set [1], the half-maximal inhibitory concentration (IC50) is 10 to 100 nM.

For `Cc1ccc(S(=O)(=O)NC[C@H]2CC[C@H](c3ccc(C4=Nc5c(N)ncnc5OC4(C)C)cc3)CC2)cc1` [Example 2-129], the melting point fell in the range of 206 to 207 °C. Moreover, the IC50 in data set [1] lay within 10 to 100 nM.

`CC1(C)Oc2ncnc(N)c2N=C1c1ccc([C@H]2CC[C@H](CNS(N)(=O)=O)CC2)cc1` [Example 2-130] yielded a melting point of 226 to 227 °C. The IC50 in data set [1] is 10 to 100 nM.

`CC1(C)Oc2ncnc(N)c2N=C1c1ccc([C@H]2CC[C@H](CNC(=O)[C@@H]3CCCN3)CC2)cc1` [Example 2-131] showed a melting point of 230 to 231 °C. Besides, the IC50 in data set [1] lay in the range of 10 to 100 nM.

As for `CC1(C)Oc2ncnc(N)c2N=C1c1ccc([C@H]2CC[C@H](CNC(=O)[C@@H]3C[C@@H](O)CN3)CC2)cc1` [Example 2-132], the melting point was in the range of 217 to 218 °C. The IC50 in data set [1] lay within 10 to 100 nM.

For the compound `Cc1nc(N)c2c(n1)OC(C)(C)C(c1ccc([C@H]3CC[C@H](CC(=O)NS(C)(=O)=O)CC3)cc1)=N2` [Example 2-134], the melting point lay in the range of 225 to 226 °C. Further, in data set [1], the IC50 is less than 10 nM.

Turning to `Cc1nc(N)c2c(n1)OC(C)(C)C(c1ccc([C@H]3CC[C@H](CC(=O)NC(C)(C)CO)CC3)cc1)=N2` [Example 2-135], the melting point lay in the range of 229 to 230 °C. In data set [1], the half-inhibitory concentration (IC50) fell in the range of 10 to 100 nM.

In turn, `Cc1nc(N)c2c(n1)OC(C)(C)C(c1ccc([C@H]3CC[C@H](CC(=O)N4CC(O)C(O)C4)CC3)cc1)=N2` (some centres unmarked) [Example 2-136] yielded a melting point of 210 to 211 °C. Further, the IC50 in data set [1] was 10 to 100 nM.

Compound `Cc1nc(N)c2c(n1)OC(C)(C)C(c1ccc([C@H]3CC[C@H](Cc4nn[nH]n4)CC3)cc1)=N2` [Example 2-137] had a melting point greater than 250 °C. The half-inhibitory concentration (IC50) in data set [1] was less than 10 nM.

Take `Cc1nc(N)c2c(n1)OC(C)(C)C(c1ccc([C@H]3CC[C@H](CNC(=O)CO)CC3)cc1)=N2` [Example 2-138]: the melting point was in the range of 235 to 238 °C. For the same compound, the IC50 in data set [1] was 10 to 100 nM.

With `Cc1nc(N)c2c(n1)OC(C)(C)C(c1ccc([C@H]3CC[C@H](CNC(=O)C(C)(C)CO)CC3)cc1)=N2` [Example 2-139], the melting point was in the range of 249 to 250 °C. For the same compound, the IC50 in data set [1] is 10 to 100 nM.

Turning to `Cc1nc(N)c2c(n1)OC(C)(C)C(c1ccc([C@H]3CC[C@H](CNC(=O)CCO)CC3)cc1)=N2` [Example 2-140], the melting point is 223 to 224 °C. The 50% inhibitory concentration (IC50) in data set [1] fell in the range of 10 to 100 nM.

As for `Cc1nc(N)c2c(n1)OC(C)(C)C(c1ccc([C@H]3CC[C@H](CCNC(=O)C(C)(C)O)CC3)cc1)=N2` [Example 2-141], the melting point fell in the range of 221 to 223 °C. Besides, the IC50 in data set [1] was in the range of 10 to 100 nM.

`Cc1nc(N)c2c(n1)OC(C)(C)C(c1ccc([C@H]3CC[C@H](CC(=O)NCC(N)=O)CC3)cc1)=N2` [Example 2-142] returned a melting point of 142 to 144 °C. Besides, in data set [1], the IC50 fell in the range of 10 to 100 nM.
